Results reported in the NIST ThermoML archive (doi:10.1007/s10765-007-0223-x).
Numbers after ± are expanded uncertainties.

Experiments:
[1] = 101 kPa, Liquid; for speed of sound: Single path-length method
[2] = xn = mol fraction of the nth substance listed; settings: 101 kPa, Liquid, x2 = 0; for speed of sound: Single path-length method

c1ccccc1 [benzene]
[1]
Settings	mass density [kg/m3]	speed of sound [m/s]
288.15 K	884.183 ± 0.35	1345.5 ± 2.1
290.65 K	881.521 ± 0.35	1333.4 ± 2.1
293.15 K	878.856 ± 0.35	1321.6 ± 2.1
295.65 K	876.19 ± 0.36	1309.9 ± 2.1
298.15 K	873.52 ± 0.36	1298.3 ± 2.1
300.65 K	870.847 ± 0.37	1286.7 ± 2.1
303.15 K	868.172 ± 0.37	1275.1 ± 2.1
305.65 K	865.49 ± 0.37	1263.6 ± 2.1
308.15 K	862.805 ± 0.38	1252.1 ± 2.1
310.65 K	860.118 ± 0.38	1240.7 ± 2.1
313.15 K	857.425 ± 0.39	1229.3 ± 2.1
315.65 K	854.73 ± 0.39	1217.9 ± 2.1
318.15 K	852.032 ± 0.39	1206.7 ± 2.1
320.65 K	849.331 ± 0.4	1195.5 ± 2.1
323.15 K	846.641 ± 0.4	1184.6 ± 2.1

c1ccccc1 [benzene] + COC(C)(C)C
[2]
Settings	mass density [kg/m3]	speed of sound [m/s]
288.15 K	884.183 ± 0.35	1345.5 ± 2.1
290.65 K	881.521 ± 0.35	1333.4 ± 2.1
293.15 K	878.856 ± 0.35	1321.6 ± 2.1
295.65 K	876.19 ± 0.36	1309.9 ± 2.1
298.15 K	873.52 ± 0.36	1298.3 ± 2.1
300.65 K	870.847 ± 0.37	1286.7 ± 2.1
303.15 K	868.172 ± 0.37	1275.1 ± 2.1
305.65 K	865.49 ± 0.37	1263.6 ± 2.1
308.15 K	862.805 ± 0.38	1252.1 ± 2.1
310.65 K	860.118 ± 0.38	1240.7 ± 2.1
313.15 K	857.425 ± 0.39	1229.3 ± 2.1
315.65 K	854.73 ± 0.39	1217.9 ± 2.1
318.15 K	852.032 ± 0.39	1206.7 ± 2.1
320.65 K	849.331 ± 0.4	1195.5 ± 2.1
323.15 K	846.641 ± 0.4	1184.6 ± 2.1

CCc1ccccc1 [ethylbenzene]
[1]
Settings	mass density [kg/m3]	speed of sound [m/s]
288.15 K	871.245 ± 0.36	1360.7 ± 2.1
290.65 K	869.052 ± 0.37	1349.9 ± 2.1
293.15 K	866.856 ± 0.37	1339.4 ± 2.1
295.65 K	864.66 ± 0.37	1328.9 ± 2.1
298.15 K	862.459 ± 0.38	1318.4 ± 2.1
300.65 K	860.256 ± 0.38	1307.9 ± 2.1
303.15 K	858.047 ± 0.38	1297.5 ± 2.1
305.65 K	855.837 ± 0.39	1287.1 ± 2.1
308.15 K	853.622 ± 0.39	1276.8 ± 2.1
310.65 K	851.407 ± 0.39	1266.5 ± 2.1
313.15 K	849.186 ± 0.4	1256.3 ± 2.1
315.65 K	846.964 ± 0.4	1246.1 ± 2.1
318.15 K	844.741 ± 0.4	1236.1 ± 2.1
320.65 K	842.518 ± 0.41	1226.1 ± 2.1
323.15 K	840.306 ± 0.41	1216.3 ± 2.1

Cc1ccccc1 [toluene]
[1]
Settings	mass density [kg/m3]	speed of sound [m/s]
288.15 K	871.457 ± 0.36	1347.5 ± 2.1
290.65 K	869.144 ± 0.37	1336.3 ± 2.1
293.15 K	866.823 ± 0.37	1325.3 ± 2.1
295.65 K	864.5 ± 0.38	1314.3 ± 2.1
298.15 K	862.173 ± 0.38	1303.4 ± 2.1
300.65 K	859.845 ± 0.38	1292.6 ± 2.1
303.15 K	857.513 ± 0.39	1281.9 ± 2.1
305.65 K	855.175 ± 0.39	1271.2 ± 2.1
308.15 K	852.838 ± 0.39	1260.5 ± 2.1
310.65 K	850.494 ± 0.4	1249.8 ± 2.1
313.15 K	848.146 ± 0.4	1239.2 ± 2.1
315.65 K	845.794 ± 0.4	1228.6 ± 2.1
318.15 K	843.437 ± 0.41	1218 ± 2.1
320.65 K	841.075 ± 0.41	1207.3 ± 2.1
323.15 K	838.706 ± 0.41	1196.6 ± 2.1

Cc1ccccc1 [toluene] + COC(C)(C)C
[2]
Settings	mass density [kg/m3]	speed of sound [m/s]
288.15 K	871.457 ± 0.36	1347.5 ± 2.1
290.65 K	869.144 ± 0.37	1336.3 ± 2.1
293.15 K	866.823 ± 0.37	1325.3 ± 2.1
295.65 K	864.5 ± 0.38	1314.3 ± 2.1
298.15 K	862.173 ± 0.38	1303.4 ± 2.1
300.65 K	859.845 ± 0.38	1292.6 ± 2.1
303.15 K	857.513 ± 0.39	1281.9 ± 2.1
305.65 K	855.175 ± 0.39	1271.2 ± 2.1
308.15 K	852.838 ± 0.39	1260.5 ± 2.1
310.65 K	850.494 ± 0.4	1249.8 ± 2.1
313.15 K	848.146 ± 0.4	1239.2 ± 2.1
315.65 K	845.794 ± 0.4	1228.6 ± 2.1
318.15 K	843.437 ± 0.41	1218 ± 2.1
320.65 K	841.075 ± 0.41	1207.3 ± 2.1
323.15 K	838.706 ± 0.41	1196.6 ± 2.1
